# ChEMBL document CHEMBL1201862, “PubChem BioAssay data set” (2004)
# “And” between values parts separate entries of the source, which are not always exact repeats. Equal values may be shown once. The source made the active and inactive calls.
# How the values were obtained:
# [1] = molecular target: T1, RNA-binding protein pos-1 (Caenorhabditis elegans, UniProt G5EF15); assay: inhibitors of POS-1/mex-3 RNA binding, dose response, biochemical, fluorescence polarization (AID 1964);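 note: purified POS-1 fused to maltose binding protein made in E. coli; potency of compounds blocking POS-1 binding to fluorescent RNA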
# T1 sequence (G5EF15 whole entry): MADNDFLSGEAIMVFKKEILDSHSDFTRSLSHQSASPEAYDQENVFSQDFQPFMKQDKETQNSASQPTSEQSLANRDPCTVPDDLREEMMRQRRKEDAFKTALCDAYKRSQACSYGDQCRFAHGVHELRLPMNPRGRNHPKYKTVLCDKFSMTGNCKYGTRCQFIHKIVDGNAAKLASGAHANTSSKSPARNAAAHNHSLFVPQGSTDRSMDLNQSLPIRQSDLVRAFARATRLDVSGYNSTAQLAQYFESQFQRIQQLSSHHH
# [2] = molecular target: T2, Zinc finger protein mex-5 (Caenorhabditis elegans, UniProt Q9XUB2); assay: MEX-5/TCR-2 RNA interaction inhibitors, dose response, biochemical, C. elegans, fluorescence polarization (AID 1960)
# T2 sequence (Q9XUB2 whole entry): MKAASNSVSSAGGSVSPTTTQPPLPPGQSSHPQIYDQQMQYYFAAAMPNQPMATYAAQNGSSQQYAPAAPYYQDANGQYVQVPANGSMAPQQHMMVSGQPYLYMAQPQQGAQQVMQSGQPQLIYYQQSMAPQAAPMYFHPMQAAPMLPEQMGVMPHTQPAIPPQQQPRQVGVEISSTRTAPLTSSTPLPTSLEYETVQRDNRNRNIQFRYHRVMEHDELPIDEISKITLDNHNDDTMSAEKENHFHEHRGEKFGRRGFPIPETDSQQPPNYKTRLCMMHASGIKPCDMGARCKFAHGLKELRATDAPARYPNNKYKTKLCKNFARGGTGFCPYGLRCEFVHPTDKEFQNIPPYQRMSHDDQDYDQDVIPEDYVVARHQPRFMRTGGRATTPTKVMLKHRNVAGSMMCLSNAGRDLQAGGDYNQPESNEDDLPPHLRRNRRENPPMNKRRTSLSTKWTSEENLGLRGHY
# Aminopeptidase N = molecular target: T3, Aminopeptidase N (Plasmodium falciparum FcB1/Columbia, UniProt O96935); assay: P. falciparum M1AAP inhibitors, biochemical, fluorogenic H-Leu-NHMec substrate, 1536-well (AID 1445); design: species or system Plasmodium falciparum 3D7, 3D7
# T3 sequence (O96935 whole entry): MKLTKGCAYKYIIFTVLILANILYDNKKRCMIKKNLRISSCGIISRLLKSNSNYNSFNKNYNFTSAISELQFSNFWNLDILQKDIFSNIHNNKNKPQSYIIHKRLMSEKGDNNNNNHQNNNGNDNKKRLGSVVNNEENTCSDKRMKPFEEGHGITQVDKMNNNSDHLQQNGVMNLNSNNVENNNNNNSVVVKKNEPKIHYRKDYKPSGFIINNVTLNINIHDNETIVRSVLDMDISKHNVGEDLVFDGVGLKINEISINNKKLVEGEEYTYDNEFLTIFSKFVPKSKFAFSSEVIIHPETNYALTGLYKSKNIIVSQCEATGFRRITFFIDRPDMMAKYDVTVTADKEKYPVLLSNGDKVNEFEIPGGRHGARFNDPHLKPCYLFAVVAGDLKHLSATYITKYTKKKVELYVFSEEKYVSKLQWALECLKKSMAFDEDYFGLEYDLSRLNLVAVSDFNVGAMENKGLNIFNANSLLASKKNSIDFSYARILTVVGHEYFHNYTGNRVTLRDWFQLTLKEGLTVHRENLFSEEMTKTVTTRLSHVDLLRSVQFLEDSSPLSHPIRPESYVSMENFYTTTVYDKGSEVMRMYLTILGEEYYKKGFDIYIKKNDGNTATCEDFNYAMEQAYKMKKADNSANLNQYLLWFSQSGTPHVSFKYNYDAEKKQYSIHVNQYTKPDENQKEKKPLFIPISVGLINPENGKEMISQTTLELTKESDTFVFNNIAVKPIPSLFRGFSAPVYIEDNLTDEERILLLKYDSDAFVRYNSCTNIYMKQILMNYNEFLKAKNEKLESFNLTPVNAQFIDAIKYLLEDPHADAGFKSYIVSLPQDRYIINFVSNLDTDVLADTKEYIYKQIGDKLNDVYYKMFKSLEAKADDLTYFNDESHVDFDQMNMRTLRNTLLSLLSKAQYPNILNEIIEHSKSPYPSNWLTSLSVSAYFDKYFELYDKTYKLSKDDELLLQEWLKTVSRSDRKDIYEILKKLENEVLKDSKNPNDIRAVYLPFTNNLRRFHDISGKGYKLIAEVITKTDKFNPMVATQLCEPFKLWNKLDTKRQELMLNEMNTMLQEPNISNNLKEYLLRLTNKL
# Cytochrome P450 2C9 = Cytochrome P450 2C9 (Homo sapiens, UniProt P11712)
# Sequence of Cytochrome P450 2C9 (P11712 whole entry): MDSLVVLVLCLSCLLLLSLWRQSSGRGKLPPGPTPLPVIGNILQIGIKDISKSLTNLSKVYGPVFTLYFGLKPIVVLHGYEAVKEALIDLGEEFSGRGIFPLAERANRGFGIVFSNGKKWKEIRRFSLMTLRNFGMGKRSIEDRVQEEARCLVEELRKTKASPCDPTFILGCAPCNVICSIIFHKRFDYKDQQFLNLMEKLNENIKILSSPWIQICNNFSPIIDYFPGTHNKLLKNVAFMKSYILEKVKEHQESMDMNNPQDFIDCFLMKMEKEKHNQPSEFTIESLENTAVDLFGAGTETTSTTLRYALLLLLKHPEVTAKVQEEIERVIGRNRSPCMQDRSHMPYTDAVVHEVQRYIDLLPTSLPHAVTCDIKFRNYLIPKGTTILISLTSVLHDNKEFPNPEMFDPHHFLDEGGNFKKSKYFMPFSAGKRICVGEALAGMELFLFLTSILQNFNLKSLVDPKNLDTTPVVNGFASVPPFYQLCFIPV
# [3] = NIH-3T3 fibroblast cytotoxicity, dose response, cytotoxicity control, cell-based, fluorescence, Alamar Blue, secondary assay (AID 2327); assay type: functional;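 note: NIH-3T3 mouse fibroblasts cultured with fluconazole at 8 µg/mL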
# Leucine aminopeptidase = molecular target: T4, Leucine aminopeptidase (Plasmodium falciparum 3D7, UniProt Q8IL11); assay: P. falciparum M17LAP inhibitors, primary screen, biochemical, fluorogenic H-Leu-NHMec substrate, 1536-well (AID 1619); assay type: functional
# T4 sequence (Q8IL11 whole entry): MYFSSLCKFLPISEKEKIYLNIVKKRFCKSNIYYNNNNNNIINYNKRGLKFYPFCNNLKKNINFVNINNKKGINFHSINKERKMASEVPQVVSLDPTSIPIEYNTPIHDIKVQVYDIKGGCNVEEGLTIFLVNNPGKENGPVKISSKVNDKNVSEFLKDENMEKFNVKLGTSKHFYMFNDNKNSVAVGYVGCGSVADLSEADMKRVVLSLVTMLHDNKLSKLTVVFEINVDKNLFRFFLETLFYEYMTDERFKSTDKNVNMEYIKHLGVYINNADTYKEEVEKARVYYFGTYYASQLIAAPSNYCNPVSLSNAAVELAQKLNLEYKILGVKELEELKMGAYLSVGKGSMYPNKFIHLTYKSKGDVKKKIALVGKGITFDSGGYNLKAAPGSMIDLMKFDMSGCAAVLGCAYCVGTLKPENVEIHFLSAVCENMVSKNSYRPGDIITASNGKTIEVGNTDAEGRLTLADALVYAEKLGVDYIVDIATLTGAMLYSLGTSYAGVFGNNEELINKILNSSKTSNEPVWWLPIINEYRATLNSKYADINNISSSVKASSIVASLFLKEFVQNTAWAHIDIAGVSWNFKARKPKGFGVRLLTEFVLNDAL
# [4] = C. albicans growth with fluconazole, confirmation, fluorescence, retest (AID 2467); assay type: functional, cell-based
# Genome polyprotein = Genome polyprotein (dengue virus type 2, UniProt P29990); assay: Dengue-2 NS5 methyltransferase inhibitors, primary screen, biochemical, confirmation dose response (AID 588689); assay type: functional
# Sequence of Genome polyprotein (P29990 2492-3391 limits assumed): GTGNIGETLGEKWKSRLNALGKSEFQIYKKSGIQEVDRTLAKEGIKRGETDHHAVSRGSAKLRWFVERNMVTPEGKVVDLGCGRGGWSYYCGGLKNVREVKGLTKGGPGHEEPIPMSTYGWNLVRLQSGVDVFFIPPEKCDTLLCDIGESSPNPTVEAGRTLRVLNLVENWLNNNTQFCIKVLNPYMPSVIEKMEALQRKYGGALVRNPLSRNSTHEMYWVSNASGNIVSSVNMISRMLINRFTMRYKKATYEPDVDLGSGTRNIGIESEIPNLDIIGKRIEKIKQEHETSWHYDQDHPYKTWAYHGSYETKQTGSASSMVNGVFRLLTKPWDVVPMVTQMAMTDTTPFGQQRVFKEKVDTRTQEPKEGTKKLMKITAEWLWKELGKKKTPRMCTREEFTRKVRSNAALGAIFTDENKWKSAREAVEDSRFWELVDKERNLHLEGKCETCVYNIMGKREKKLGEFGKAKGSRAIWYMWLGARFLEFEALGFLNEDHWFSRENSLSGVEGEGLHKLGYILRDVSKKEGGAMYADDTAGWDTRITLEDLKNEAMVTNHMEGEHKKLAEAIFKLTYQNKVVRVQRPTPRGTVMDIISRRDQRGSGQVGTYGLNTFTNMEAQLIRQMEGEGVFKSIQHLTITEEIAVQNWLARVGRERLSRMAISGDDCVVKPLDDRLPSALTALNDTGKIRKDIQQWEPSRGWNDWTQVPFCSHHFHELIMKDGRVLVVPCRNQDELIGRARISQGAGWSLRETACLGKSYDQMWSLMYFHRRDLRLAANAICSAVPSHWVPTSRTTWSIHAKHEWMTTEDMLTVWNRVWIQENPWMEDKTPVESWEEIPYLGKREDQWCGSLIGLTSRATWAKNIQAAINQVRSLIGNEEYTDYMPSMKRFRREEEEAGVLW
# [5] = HEp-2 cell cytotoxicity, dose response, cytotoxicity control for RSV inhibitor project, HTS (AID 2410); assay type: functional; conditions: human respiratory syncytial virus
# cells [6] = assay: cells
# [7] = inhibitors of intracellular T. cruzi replication, confirmation, NIH3T3 host cells, beta-gal luminescence (AID 2044); assay type: functional, cell-based;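 note: intracellular parasites grown in NIH/3T3 mouse fibroblasts as host cells; luminescent beta-galactosidase reporter signal from transgenic T. cruzi replicating inside host cells; inhibitors lower the luminescence signal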
# [8] = cytotoxicity toward NIH3T3 fibroblasts, dose response, counter-screen, cell-based, ATP luminescence, mouse fibroblasts (AID 2010); assay type: functional;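 note: cells exposed to compound for about 90 hours before reading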
# [9] = THP-1 cell cytotoxicity, dose response, cytotoxicity control for non-replicating M. tuberculosis project (AID 489025); assay type: functional
# [10] = Vero E6 cell cytotoxicity, dose response, cytotoxicity control for non-replicating M. tuberculosis project, secondary assay (AID 492998); assay type: functional, VeroE6; conditions: Vero C1008
# cells [11] = assay type: functional
# INS1 = assay: beta cell apoptosis inhibitors, cytokine rescue, dose response, luminescence, retest (AID 449756); assay type: functional, cell-based; conditions: Rattus norvegicus;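 note: cell death triggered by IL-1 beta plus TNF-alpha plus IFN-gamma mixture; protective hits raise ATP signal compared with cytokine alone wells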
# Cytochrome P450 3A4 = Cytochrome P450 3A4 (Homo sapiens, UniProt P08684); conditions: Potency;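 note: confirmatory qHTS run detecting inhibitors and substrates of CYP3A4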
# Sequence of Cytochrome P450 3A4 (P08684 whole entry): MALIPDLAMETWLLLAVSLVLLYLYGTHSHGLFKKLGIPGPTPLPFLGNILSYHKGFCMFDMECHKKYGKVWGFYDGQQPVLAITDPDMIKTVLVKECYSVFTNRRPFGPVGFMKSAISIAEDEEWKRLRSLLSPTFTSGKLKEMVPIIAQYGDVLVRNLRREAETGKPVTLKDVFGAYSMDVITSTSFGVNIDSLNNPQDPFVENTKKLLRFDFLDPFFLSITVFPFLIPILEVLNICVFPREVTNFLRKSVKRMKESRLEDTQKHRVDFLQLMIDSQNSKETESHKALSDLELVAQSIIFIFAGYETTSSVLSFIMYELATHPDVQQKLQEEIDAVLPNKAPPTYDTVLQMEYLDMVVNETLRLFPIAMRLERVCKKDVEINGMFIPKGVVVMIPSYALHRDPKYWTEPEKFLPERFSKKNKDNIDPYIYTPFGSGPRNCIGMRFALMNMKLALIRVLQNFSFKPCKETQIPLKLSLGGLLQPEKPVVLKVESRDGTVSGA
compound,measurement,setting,value
O=C1NC(=O)N(c2ccc(Cl)cc2)C(=O)/C1=C/NCCN1CCCCC1,EC50,[1],> 300 µM (not active)
same,EC50,[2],> 300 µM (not active)
O=C(COc1ccccc1/C=C1\SC(=O)NC1=O)Nc1ccc(F)cc1,IC50,Aminopeptidase N,27.5 µM (active)
Cn1cccc1C(=O)C(=O)Nc1cccc(Cl)c1Cl,AC50,Cytochrome P450 2C9,inconclusive
O=C(O)CSc1nc(-c2ccc(Cl)cc2)nc2c1oc1ccccc12,EC50,[3],6.56 µM (active)
same,IC50,Leucine aminopeptidase,34.6 µM (active)
same,IC50,Aminopeptidase N,82.7 µM (active)
same,EC50,[4],1.93 µM (active)
same,IC50,Genome polyprotein,40.6 µM (active)
O=C1CCCC2=C1C(c1ccccc1)C1C(=O)c3ccccc3C1=N2 (configuration not stated),CC50,[5],> 50 µM (active)
same,IC50,cells [6],39.8 µM (active)
COc1ccc(/C=C/C(=O)NCc2nc3ccccc3[nH]2)cc1OC,IC50,cells [6],30.6 µM (active)
CCN1CCN(c2ccc(S(=O)(=O)N3CCCCC3)cc2NC(=O)c2ccc([N+](=O)[O-])o2)CC1,EC50,[7],0.741 µM (active)
same,EC50,[8],23.8 µM (active)
same,CC50,[9],19.1 µM (active)
same,CC50,[10],16.7 µM (active)
same,IC50,cells [11],12.8 µM (active)
same,AC50,INS1,3.27 µM (active)
COC(=O)C1=C(C)N(Cc2ccccc2)C2=C3C(=O)N(c4ccccc4)C(=O)C3[C@@](O)(C(=O)OC)C(=O)N2C1c1ccccc1 (some centres not stated),AC50,Cytochrome P450 3A4,3.98 µM (inconclusive) and 3.16 µM (inconclusive)
Cc1c(Cl)cccc1N=C(S)N1CCN(C(=O)C2CCCO2)CC1 (configuration not stated),EC50,[1],> 300 µM (not active)
same,EC50,[2],> 300 µM (not active)
Cc1nc2ccccc2c(=O)n1NC(=O)c1ccco1,IC50,Aminopeptidase N,70.7 µM (active)
